Biological target: T1, Nano luciferase (NLuc) (Oplophorus gracilirostris, UniProt Q9GV45, A31E/A60N/A81I/F95D/I117V/K70R/L54V/L99Q/M102K/N193R/P142E/Q151K/Q38R/Q45L/V71I/Y165I)
T1 construct: His tag (inferred from IMAC purification); made in house; host or cells: E. coli
Assay: Thermal shift profiles (Thermofluor assay), NLuc
Type: binding
Set-up: unit of the concentration uncertain
Conditions: compound 100 (unit uncertain); for Thermofluor NLuc, ATP: ATP (2 mM)
Protocol: Thermal stabilization of proteins in the presence of the ligands were determined using Thermofluor technique. MicroAmp optical 384-well plates (Applied Biosystems by Life Technologies), ViiA 7 real-time PCR instrument (Applied Biosystems by Life Technologies) and SYPRO Orange (Life Technologies) were used to test the samples. […]. Proteins were added to the 384-well plate first followed by the compounds. Samples were incubated for 10 mins at room temperature and protected from light. SYPRO Orange dye was diluted to 50x from 5000x stock in a PBS buffer, and 4 µL dye was added to the each well using a multi-channel pipette. The plate was sealed with a MicroAmp optical adhesive film, centrifuged at 1500 RPM for 2 min, and then loaded onto the ViiA 7 real–time PCR instrument for fluorescence intensity measurements upon heating the sample from 25 to 95 °C at 1 °C/min increments. Data was exported to excel, fluorescence intensity data and its first derivative were normalized and plotted using GraphPad Prism to determine Tm. See Supplementary Table 3 for additional details.
Supplementary Figure 6. Comparison of SDR and Thermofluor analysis of […]
Temperature °C Temperature °C […]
Supplementary Table 3. Protocol for Thermofluor assay
Supplementary Table 3: Protocol for Therm ofluor assay
Sequence Param eter Value Description […]
3 Incubation 10 m ins Room tem perature, protected from light
4 Dye 10X Sypro Orange dye in PBS added to the sam ple
5 Centrifugation 2 m in Centrifuge for 2 m in at 1500 RPM at RT
6 Read ViiA7 Read the therm al unfolding of the protein with ViiA7 real-tim e PCR system
4 Prepare 50X dye in PBS: 1 μL Sypro Orange 5000X (Life Technologies), 99 μL ddH2O. Add 4 μL to each well Read the m elting tem perature from 25 to 95 °C using ViiA 7 real tim e PCR instrum ent by following the below instructions Perform therm al denaturation in 384-well assay plate
(i) Place the assay plate into the Applied Biosystem s ViiA7 real-tim e PCR instrum ent and open the ViiA7 RUO software.
Under Experim ental Properties, select the following param eters: Set up: […] (20 μl), Experim ent type: MELT CURVE, Reagents used to detect target sequence: OTHER, Ram p Speed: […]
(ii) Select the Define tab on the left, then select the following param eters: Target nam e: TARGET 1, Reporter: ROX, 6 Quencher: NONE, Passive Reference: NONE
(iii) Select the Assign tab on the left, then perform the following actions: Highlight all 384 wells in the assay plate and check the box next to ‘Target 1’ on the top left of the plate layout. Note: check the ‘Sam ple’ box on the lower left.
(iv) Select the Run Method tab on the left, then m ake the following changes to the default Melt Curve profile: Delete Step 2 of the default cycle, change run m ethod to “Step and Hold” with a 1:00 tim e, set the following tem peratures: an initial 2:00 hold at 25 °C (4 °C), ram ping up in increm ents of 1 ° C to a final tem perature of 95 °C (with a 2:00 hold), click on all three cam eras to activate fluorescence detection throughout the experim ent, and Select total volum e per well of 20 μl
(v) Click on the RUN tab to the left to initiate therm al denaturation.

T1 sequence (Q9GV45 other isoform, or with tags, fused parts or gaps with the stated changes): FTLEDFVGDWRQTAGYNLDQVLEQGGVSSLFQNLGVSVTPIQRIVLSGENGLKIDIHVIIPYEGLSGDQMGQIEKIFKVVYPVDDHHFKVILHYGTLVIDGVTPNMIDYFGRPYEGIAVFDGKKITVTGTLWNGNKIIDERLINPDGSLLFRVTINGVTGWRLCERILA

Structure (SMILES): CC(CNC(=O)C1CCN(C(=O)c2ncn3c2COC(c2ccccc2)C3)CC1)c1ccccc1 (stereo not drawn) [NCGC 00449795]
- Thermofluor NLuc, No ATP (20.000 °C): 1
- Thermofluor NLuc, ATP (20.000 °C): 0.97
- Thermofluor NLuc, No ATP (20.993 °C): 0.711
- Thermofluor NLuc, ATP (20.993 °C): 0.992
- Thermofluor NLuc, No ATP (21.987 °C): 0.647
- Thermofluor NLuc, ATP (21.987 °C): 1
- Thermofluor NLuc, No ATP (22.980 °C): 0.606
- Thermofluor NLuc, ATP (22.980 °C): 0.993
- Thermofluor NLuc, No ATP (23.974 °C): 0.589
- Thermofluor NLuc, ATP (23.974 °C): 0.974
- Thermofluor NLuc, No ATP (24.967 °C): 0.561
- Thermofluor NLuc, ATP (24.967 °C): 0.95
- Thermofluor NLuc, No ATP (25.960 °C): 0.532
- Thermofluor NLuc, ATP (25.960 °C): 0.929
- Thermofluor NLuc, No ATP (26.954 °C): 0.532
- Thermofluor NLuc, ATP (26.954 °C): 0.916
- Thermofluor NLuc, No ATP (27.947 °C): 0.499
- Thermofluor NLuc, ATP (27.947 °C): 0.908
- Thermofluor NLuc, No ATP (28.940 °C): 0.462
- Thermofluor NLuc, ATP (28.940 °C): 0.904
- Thermofluor NLuc, No ATP (29.934 °C): 0.421
- Thermofluor NLuc, ATP (29.934 °C): 0.9
- Thermofluor NLuc, No ATP (30.927 °C): 0.383
- Thermofluor NLuc, ATP (30.927 °C): 0.894
- Thermofluor NLuc, No ATP (31.921 °C): 0.366
- Thermofluor NLuc, ATP (31.921 °C): 0.886
- Thermofluor NLuc, No ATP (32.914 °C): 0.333
- Thermofluor NLuc, ATP (32.914 °C): 0.878
- Thermofluor NLuc, No ATP (33.907 °C): 0.327
- Thermofluor NLuc, ATP (33.907 °C): 0.87
- Thermofluor NLuc, No ATP (34.901 °C): 0.309
- Thermofluor NLuc, ATP (34.901 °C): 0.863
- Thermofluor NLuc, No ATP (35.894 °C): 0.276
- Thermofluor NLuc, ATP (35.894 °C): 0.856
- Thermofluor NLuc, No ATP (36.887 °C): 0.231
- Thermofluor NLuc, ATP (36.887 °C): 0.849
- Thermofluor NLuc, No ATP (37.881 °C): 0.229
- Thermofluor NLuc, ATP (37.881 °C): 0.841
- Thermofluor NLuc, No ATP (38.874 °C): 0.176
- Thermofluor NLuc, ATP (38.874 °C): 0.833
- Thermofluor NLuc, No ATP (39.868 °C): 0.201
- Thermofluor NLuc, ATP (39.868 °C): 0.827
- Thermofluor NLuc, No ATP (40.861 °C): 0.184
- Thermofluor NLuc, ATP (40.861 °C): 0.824
- Thermofluor NLuc, No ATP (41.854 °C): 0.161
- Thermofluor NLuc, ATP (41.854 °C): 0.821
- Thermofluor NLuc, No ATP (42.848 °C): 0.108
- Thermofluor NLuc, ATP (42.848 °C): 0.817
- Thermofluor NLuc, No ATP (43.841 °C): 0.096
- Thermofluor NLuc, ATP (43.841 °C): 0.812
- Thermofluor NLuc, No ATP (44.835 °C): 0.098
- Thermofluor NLuc, ATP (44.835 °C): 0.805
- Thermofluor NLuc, No ATP (45.828 °C): 0.096
- Thermofluor NLuc, ATP (45.828 °C): 0.794
- Thermofluor NLuc, No ATP (46.821 °C): 0.034
- Thermofluor NLuc, ATP (46.821 °C): 0.779
- Thermofluor NLuc, No ATP (47.815 °C): 0.027
- Thermofluor NLuc, ATP (47.815 °C): 0.76
- Thermofluor NLuc, No ATP (48.808 °C): 0.048
- Thermofluor NLuc, ATP (48.808 °C): 0.734
- Thermofluor NLuc, No ATP (50.795 °C): 0.006
- Thermofluor NLuc, ATP (50.795 °C): 0.656
- Thermofluor NLuc, No ATP (51.788 °C): 0.009
- Thermofluor NLuc, ATP (51.788 °C): 0.601
- Thermofluor NLuc, No ATP (52.782 °C): 0
- Thermofluor NLuc, ATP (52.782 °C): 0.533
- Thermofluor NLuc, No ATP (53.775 °C): 0.03
- Thermofluor NLuc, ATP (53.775 °C): 0.451
- Thermofluor NLuc, No ATP (54.768 °C): 0.027
- Thermofluor NLuc, ATP (54.768 °C): 0.357
- Thermofluor NLuc, No ATP (55.762 °C): 0.051
- Thermofluor NLuc, ATP (55.762 °C): 0.257
- Thermofluor NLuc, No ATP (56.755 °C): 0.14
- Thermofluor NLuc, ATP (56.755 °C): 0.161
- Thermofluor NLuc, No ATP (57.748 °C): 0.19
- Thermofluor NLuc, ATP (57.748 °C): 0.079
- Thermofluor NLuc, No ATP (58.742 °C): 0.3
- Thermofluor NLuc, ATP (58.742 °C): 0.022
- Thermofluor NLuc, No ATP (59.735 °C): 0.413
- Thermofluor NLuc, ATP (59.735 °C): 0
- Thermofluor NLuc, No ATP (60.729 °C): 0.505
- Thermofluor NLuc, ATP (60.729 °C): 0.015
- Thermofluor NLuc, No ATP (61.722 °C): 0.61
- Thermofluor NLuc, ATP (61.722 °C): 0.065
- Thermofluor NLuc, No ATP (62.715 °C): 0.667
- Thermofluor NLuc, ATP (62.715 °C): 0.143
- Thermofluor NLuc, No ATP (63.709 °C): 0.726
- Thermofluor NLuc, ATP (63.709 °C): 0.238
- Thermofluor NLuc, No ATP (65.695 °C): 0.759
- Thermofluor NLuc, ATP (65.695 °C): 0.437
- Thermofluor NLuc, No ATP (66.689 °C): 0.785
- Thermofluor NLuc, ATP (66.689 °C): 0.525
- Thermofluor NLuc, No ATP (68.676 °C): 0.749
- Thermofluor NLuc, ATP (68.676 °C): 0.658
- Thermofluor NLuc, No ATP (69.669 °C): 0.746
- Thermofluor NLuc, ATP (69.669 °C): 0.703
- Thermofluor NLuc, No ATP (70.662 °C): 0.73
- Thermofluor NLuc, ATP (70.662 °C): 0.736
- Thermofluor NLuc, No ATP (71.656 °C): 0.72
- Thermofluor NLuc, ATP (71.656 °C): 0.76
- Thermofluor NLuc, No ATP (72.649 °C): 0.696
- Thermofluor NLuc, ATP (72.649 °C): 0.778
- Thermofluor NLuc, No ATP (73.643 °C): 0.686
- Thermofluor NLuc, ATP (73.643 °C): 0.793
- Thermofluor NLuc, No ATP (74.636 °C): 0.672
- Thermofluor NLuc, ATP (74.636 °C): 0.807
- Thermofluor NLuc, No ATP (75.629 °C): 0.623
- Thermofluor NLuc, ATP (75.629 °C): 0.82

Reference: PMC12064818, “A general assay platform to study protein pharmacology using ligand-dependent structural dynamics” (Nature Communications, 2025)
